Measurements reported in publication PMC8904520, “Characterization of a small-molecule inhibitor targeting NEMO/IKKβ to suppress colorectal cancer growth” (Signal Transduction and Targeted Therapy, 2022).

Legend:
[1] = target: T1, NEMO/IKKβ complex (Homo sapiens, UniProt O14920+Q9Y6K9); test: Co-immunoprecipitation of NEMO/IKKβ; settings: pre-formed complex, Co-IP
T1 construct: expressed in transfected cells; host or cells: HEK293T
Experimental: The pre-cleared cell lysates were incubated with an anti-HA antibody on a rotating platform at 4 °C for 2 h, and then incubated for another 6 h with protein A/G-sepharose beads. The sepharose beads were washed three times with binding buffer, mixed with gel loading buffer and boiled for 5 min. The samples were centrifuged and the supernatants were used for western blot analysis. A specific antibody against the Flag-tag was applied for the detection of proteins.
The IKKβ and NEMO expression vectors were constructed by subcloning the full-length cDNA to pENTER-4T1 expression vector (Flag- or HA-tagged) developed by ViGene Biosciences, as described previously.[25] The 293T cells (1 × 10^6) were plated into 60 mm dishes for 1 day, and then transfected with the relevant plasmids encoding HA-IKKβ and Flag-NEMO using Lipofectamine 2000 transfection reagent (Invitrogen). After transfection, the cells were cultured for another 24 h. Subsequently, the transfected cells were trypsinized and seeded into 60 mm dishes, followed by culturing with fresh medium containing the indicated doses of SHK for 48 h, and then collected for the Co-IP assay.

[2] = system: colorectal cancer cells (LoVo, RKO, SW620, HCT15, HCT116); test: CCK-8 cell viability assay, colorectal cancer cells; assay type: cell-based, human; settings: LoVo, RKO, SW620, HCT15, HCT116; 48 h
Experimental: Cell viability was determined using the CCK-8 assay. Briefly, 5×10³ cells were seeded into 96-well culture plates, allowed to adhere for overnight, and then changed to fresh medium containing various concentrations of SHK (0, 0.5, 1, 2 and 5 µM) dissolved in DMSO (final concentration, 0.1%). After incubation for 48 h, the CCK-8 reagent was added, and the absorbance was measured at 450 nm using an EnSpire® Multimode Plate Reader (Perkin Elmer, USA). The cell viability in the vehicle control groups was defined as 100%. Each assay was carried out in triplicate.

T1 sequence (Q9Y6K9 1-196): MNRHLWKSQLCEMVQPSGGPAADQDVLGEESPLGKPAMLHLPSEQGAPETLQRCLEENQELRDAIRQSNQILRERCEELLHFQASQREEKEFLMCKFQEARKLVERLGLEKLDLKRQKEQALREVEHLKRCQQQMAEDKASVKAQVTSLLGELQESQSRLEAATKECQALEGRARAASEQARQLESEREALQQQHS
T1 sequence (O14920 701-745): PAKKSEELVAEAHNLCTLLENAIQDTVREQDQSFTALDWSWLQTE

Structure (SMILES)	ability to destabilize the NEMO/IKKβ complex [1]	growth inhibition of cancer cell lines [2]
CC(=O)O[C@H](CC=C(C)C)C1=CC(=O)c2c(O)ccc(O)c2C1=O [ASHK, acetyl shikonin]	lost the ability to destabilize the NEMO/IKKβ complex	only slight growth inhibition
CC(C)=CCCC1=CC(=O)c2c(O)ccc(O)c2C1=O [DSHK, deoxyshikonin]	lost the ability to destabilize the NEMO/IKKβ complex	only slight growth inhibition
COC(CC=C(C)C)C1=CC(=O)c2c(O)ccc(O)c2C1=O (stereo not drawn) [MSHK, methylshikonin]	lost the ability to destabilize the NEMO/IKKβ complex	only slight growth inhibition
